Here are results for one compound from patent publication US20210393621A1, “COMBINATION SEROTONIN SPECIFIC REUPTAKE INHIBITOR AND SEROTONIN 1A RECEPTOR PARTIAL AGONIST FOR REDUCING L-DOPA-INDUCED DYSKINESIA” (The Research Foundation for The State University of new York, priority 2018, published 2021).

One data set deals with 5-HT1D (Homo sapiens, UniProt P28221). The note with it: cited from earlier work.
The target in another data set is 5-HT2C (Homo sapiens, UniProt P28335). The note with it: cited from earlier work.
Sequence of 5-HT2C (P28335 33-458, species assumed): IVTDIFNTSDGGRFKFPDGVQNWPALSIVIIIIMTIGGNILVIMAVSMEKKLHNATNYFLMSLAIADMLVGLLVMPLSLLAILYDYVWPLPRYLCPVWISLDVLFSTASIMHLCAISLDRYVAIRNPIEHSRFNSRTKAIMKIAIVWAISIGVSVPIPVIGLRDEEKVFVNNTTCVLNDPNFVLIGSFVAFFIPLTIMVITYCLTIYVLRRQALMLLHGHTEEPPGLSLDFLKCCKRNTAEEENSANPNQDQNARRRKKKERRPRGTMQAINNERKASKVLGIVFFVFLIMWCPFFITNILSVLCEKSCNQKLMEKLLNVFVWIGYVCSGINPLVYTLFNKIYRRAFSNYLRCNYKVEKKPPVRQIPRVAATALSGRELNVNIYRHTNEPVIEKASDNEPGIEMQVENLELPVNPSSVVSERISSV
The target of data set [1] is T1, 5-HT1A receptor (Homo sapiens, UniProt P08908).
T1 sequence (P08908 1-422): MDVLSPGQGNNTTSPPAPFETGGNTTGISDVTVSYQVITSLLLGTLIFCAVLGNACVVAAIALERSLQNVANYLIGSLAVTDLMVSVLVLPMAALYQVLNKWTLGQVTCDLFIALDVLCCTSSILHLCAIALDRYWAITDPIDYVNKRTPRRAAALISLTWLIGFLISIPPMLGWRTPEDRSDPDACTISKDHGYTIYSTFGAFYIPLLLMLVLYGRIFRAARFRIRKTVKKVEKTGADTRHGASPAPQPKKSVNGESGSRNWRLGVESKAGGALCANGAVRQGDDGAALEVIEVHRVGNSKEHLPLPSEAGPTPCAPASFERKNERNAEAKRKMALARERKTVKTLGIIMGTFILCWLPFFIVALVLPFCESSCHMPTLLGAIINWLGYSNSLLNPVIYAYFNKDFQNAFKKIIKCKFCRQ
The arrangement: expressed in transfected cells; host or cells: SF9 cells. Particulars: 5-HT1A receptor expressed in SF9 cells; cited from earlier work.

Data set [2] concerns the target norepinephrine transporter (NET) (Homo sapiens, UniProt P23975). The note with it: read-out: Ki for NET (norepinephrine reuptake site); cited from earlier work.
Data set [3] concerns unilateral 6-OHDA-lesioned rats. Nature of the data set: Example 2: L-DOPA-induced dyskinesias (LIDs) scoring. Type of data set: in vivo, Sprague-Dawley rats. The note with it: pretreatment with vilazodone 10 mg/kg or escitalopram 12.5 mg/kg before L-DOPA 5 mg/kg, 2 weeks; hydrochloride. How it is done: 6-OHDA-induced dopaminergic lesions: Adult male Sprague-Dawley rats were randomly assigned to groups receiving either a 6-OHDA or sham lesion. […] [[…] 2019]. […] Rats were treated for 5 consecutive days/week (Mon-Fri), for 2 weeks. […] All rats were evaluated three times per week for the presence of L-DOPA-induced dyskinesias (LIDs) (Wed-Fri) and once for the stepping test (Tue). […] Scores were given over 1 min epochs and classified as axial, limb, orolingual and locomotive. […] Arrows=inhibitory input; dashed arrows=compromised function. The severity of each LID was scored using a standard scale. Each dyskinetic behavior was given an intensity and frequency score, which were then multiplied. The average sum of the products of each LID was determined in each animal.

The subject of data set [4] is 6-OHDA-lesioned hemi-parkinsonian rats. The data set can be described thus: Experiment 1: AIMs, established LID in L-DOPA-primed hemi-parkinsonian rats. Type of data set: in vivo, Sprague-Dawley rats.
The target of another data set is 5-HT2A (Homo sapiens, UniProt P28223). Particulars: cited from earlier work.
Sequence of 5-HT2A (P28223 whole entry, species assumed): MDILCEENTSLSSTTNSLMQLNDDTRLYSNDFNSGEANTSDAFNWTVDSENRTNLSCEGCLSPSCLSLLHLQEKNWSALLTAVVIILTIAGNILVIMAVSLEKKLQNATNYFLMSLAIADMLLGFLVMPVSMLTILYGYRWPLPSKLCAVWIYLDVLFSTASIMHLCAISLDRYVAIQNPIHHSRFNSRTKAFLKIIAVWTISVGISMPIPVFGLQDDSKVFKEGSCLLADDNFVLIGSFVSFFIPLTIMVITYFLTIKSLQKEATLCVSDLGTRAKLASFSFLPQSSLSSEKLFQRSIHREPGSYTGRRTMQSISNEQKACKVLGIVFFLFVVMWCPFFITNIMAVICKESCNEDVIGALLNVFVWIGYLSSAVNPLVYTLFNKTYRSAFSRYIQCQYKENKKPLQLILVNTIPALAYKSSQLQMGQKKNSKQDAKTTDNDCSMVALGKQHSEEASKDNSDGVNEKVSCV
The target of data set [5] is T1, 5-HT1A receptor. Particulars: cited from earlier work.
For data set [6], the system named is L-DOPA-primed 6-OHDA-lesioned rats. Nature of the data set: Experiment 3: AIMs with 5-HT1AR or 5-HT1BR antagonist before Vilazodone and L-DOPA. Format: in vivo, Sprague-Dawley rats.
Description: In each study, the LD-primed rats received (FIG. 4A) the 5-HT1AR antagonist WAY100635 [WAY; 0 or 0.5 mg/kg, s.c.] or (FIG. 4B) the 5-HT1BR antagonist NAS [NAS; 0 or 0.3 mg/kg, s.c.]) 5 min prior to VZD (0 or 10 mg/kg, s.c.) injected 5 min prior to LD (6 mg/kg, s.c.) in a within-subjects counterbalanced design. ALO AIMs were evaluated and are shown for every 10 min for 3 h after LD administration.
All 6-OHDA-lesioned rats (n=17) were tested on the FAS prior to treatment regimens to establish baseline motor performance. Three-weeks post-surgery, all rats were primed with L-DOPA (6 mg/kg, s.c.) for 14 days.
Beginning 10 min post-treatment, a trained and blinded observer assigned a severity score (0-4) to each of the ALO AIMs based on 1 min ratings every 10 min for 3 h: 0, not present; 1, present from 1-29 s; 2, present 30-59 s; 3, present all 60 s, but interruptible by a cylinder tap; 4, present 60 s and not interruptible by a cylinder tap.
Data set [7] deals with dopamine transporter (DAT) (Homo sapiens, UniProt Q01959). The note with it: read-out: Ki for DAT (dopamine reuptake site); cited from earlier work.
Sequence of dopamine transporter (DAT) (Q01959 whole entry, species assumed): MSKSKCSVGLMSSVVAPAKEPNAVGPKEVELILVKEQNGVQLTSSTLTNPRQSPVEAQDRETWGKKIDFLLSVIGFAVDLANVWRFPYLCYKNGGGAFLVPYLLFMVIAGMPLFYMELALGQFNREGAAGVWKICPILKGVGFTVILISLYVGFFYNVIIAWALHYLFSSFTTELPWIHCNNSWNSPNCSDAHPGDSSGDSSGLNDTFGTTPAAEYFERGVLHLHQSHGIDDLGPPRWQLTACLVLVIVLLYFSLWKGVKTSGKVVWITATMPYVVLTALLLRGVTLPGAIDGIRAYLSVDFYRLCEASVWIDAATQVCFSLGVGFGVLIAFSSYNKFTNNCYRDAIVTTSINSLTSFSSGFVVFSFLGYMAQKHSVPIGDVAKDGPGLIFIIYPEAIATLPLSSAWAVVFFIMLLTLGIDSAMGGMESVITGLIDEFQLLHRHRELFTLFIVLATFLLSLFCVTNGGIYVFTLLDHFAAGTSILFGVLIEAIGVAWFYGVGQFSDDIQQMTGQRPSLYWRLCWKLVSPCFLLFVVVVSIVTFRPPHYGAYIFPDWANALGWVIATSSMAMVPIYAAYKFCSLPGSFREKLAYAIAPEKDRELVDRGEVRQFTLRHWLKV

Structures are written as SMILES. “Also recorded” adds a separate entry of the source.

Sequence of 5-HT1D (P28221 whole entry, species assumed): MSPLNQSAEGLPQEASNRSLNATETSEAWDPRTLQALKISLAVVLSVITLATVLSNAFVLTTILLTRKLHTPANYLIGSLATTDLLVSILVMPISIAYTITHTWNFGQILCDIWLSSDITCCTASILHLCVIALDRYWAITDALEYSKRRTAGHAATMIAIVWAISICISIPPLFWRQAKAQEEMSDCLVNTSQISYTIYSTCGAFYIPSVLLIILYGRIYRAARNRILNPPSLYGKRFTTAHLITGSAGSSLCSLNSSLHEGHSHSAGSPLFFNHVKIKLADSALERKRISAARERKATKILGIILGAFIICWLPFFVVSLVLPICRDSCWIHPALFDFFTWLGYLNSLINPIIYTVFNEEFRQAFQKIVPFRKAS
Sequence of norepinephrine transporter (NET) (P23975 whole entry): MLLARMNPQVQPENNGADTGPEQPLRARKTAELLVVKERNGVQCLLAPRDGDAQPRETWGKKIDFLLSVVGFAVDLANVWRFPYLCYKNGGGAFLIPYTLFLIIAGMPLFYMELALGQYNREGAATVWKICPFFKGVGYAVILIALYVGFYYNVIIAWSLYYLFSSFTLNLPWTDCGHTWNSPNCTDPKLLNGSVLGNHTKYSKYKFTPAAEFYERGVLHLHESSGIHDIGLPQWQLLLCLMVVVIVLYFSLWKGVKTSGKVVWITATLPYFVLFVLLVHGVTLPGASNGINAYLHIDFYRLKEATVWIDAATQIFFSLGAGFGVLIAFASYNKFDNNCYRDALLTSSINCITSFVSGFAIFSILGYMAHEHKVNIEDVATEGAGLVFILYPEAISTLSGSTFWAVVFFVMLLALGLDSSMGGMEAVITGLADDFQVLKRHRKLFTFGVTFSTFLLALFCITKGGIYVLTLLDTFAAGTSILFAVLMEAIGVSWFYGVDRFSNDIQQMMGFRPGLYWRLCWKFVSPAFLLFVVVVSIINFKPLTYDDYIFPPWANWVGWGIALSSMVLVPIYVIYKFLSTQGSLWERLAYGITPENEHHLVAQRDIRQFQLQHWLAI

Regarding `Cl.N#Cc1ccc2[nH]cc(CCCCN3CCN(c4ccc5oc(C(N)=O)cc5c4)CC3)c2c1` [Vilazodone, 5-{4-[4-(5-cyano-3-indolyl)-butyl]-1-piperazinyl}-benzofuran-2-carboxamide hydrochloride], the “affinity for 5-HT1D” value at 5-HT1D was “negligible affinity”. At 5-HT2C, the “affinity for 5-HT2C” value is listed as “negligible affinity”. Moreover, at 5-HT1A receptor [1], the “increase of [35S]GTPγS binding compared to vehicle” value was “fourfold”. The results for the Ki in data set [2] and in data set [7] were 56 nM and 37 nM, respectively. Also, the “LIDs score / severity” value in [3] is given as “most significant effect on attenuating LIDs; also recorded: significantly reduced LIDs”. Also, the “anti-LID efficacy, high versus low dose” value in data set [4] (20 mg/kg vs 10 mg/kg, initially, dissipated after the first week) is recorded as “greater anti-LID efficacy than the lower dose”. Besides, the “ALO AIMs, established LID” value in data set [4] (VZD 10 or 20 mg/kg s.c. 5 min prior to L-DOPA 6 mg/kg, vs Vilazodone (0 mg/kg)+L-DOPA (6 mg/kg), from first day throughout treatment) was “dramatically reduced AIMs”. Besides, the “side effects, like 5-HT syndrome” value in data set [4] (chronic Vilazodone + L-DOPA in rats, any time point) is listed as “weren't observed at any time point”. Also, the “reduction of development and expression of LID compared with Amantadine” value in data set [4] (validated rodent model) is listed as “more effective than Amantadine”. In addition, on 5-HT2A, the “affinity for 5-HT2A” value is “negligible affinity”. The “5-HT1A receptor IA” value on 5-HT1A receptor [5] is given as 60-70%. Moreover, the “ALO AIMs, 5-HT1BR study” value in data set [6] (NAS-181 0 or 3.0 mg/kg, then VZD 0 or 10 mg/kg, then L-DOPA 6 mg/kg, s.c.) is given as “significantly reduced ALO AIMs”. Also, the “LID duration, time course” value in data set [6] (VZD 10 mg/kg + L-DOPA 6 mg/kg) was “little effect on LID duration”. For the same compound, the “peak dyskinesia, time course” value in data set [6] (VZD 10 mg/kg + L-DOPA 6 mg/kg) is “reduced peak dyskinesia”. For the same compound, the “summed ALO AIMs, 5-HT1AR study” value in [6] (WAY100635 0 or 0.5 mg/kg, then VZD 0 or 10 mg/kg, then L-DOPA 6 mg/kg, s.c.) is reported as “significantly reduced ALO AIMs”.
